From patent US12195596B2, “Hyperbranched boric acid modified phthalonitrile monomer as well as preparation method and use thereof” (priority 2021, dated 2025)

Test: Solubility of phthalonitrile monomers in common organic solvents
Type: physicochemical
Design: key: “+” represents “soluble”

Measured: Solubility

N#Cc1ccc(Oc2cccc(OB(Oc3cccc(Oc4ccc(C#N)c(C#N)c4)c3)Oc3cccc(Oc4ccc(C#N)c(C#N)c4)c3)c2)cc1C#N [Example 3]
+: DMF | DMSO | NMP | THF | acetone

N#Cc1ccc(Oc2cccc(OB(Oc3cccc(Oc4ccc(C#N)c(C#N)c4)c3)c3ccccc3)c2)cc1C#N [Example 4]
+: DMF | DMSO | NMP | THF | acetone
